Assay results published in patent publication US12448394B2, “Heterocyclic pyrazole derivatives as type III receptor tyrosine kinase inhibitors” (DEVELOPMENT CENTER FOR BIOTECHNOLOGY, priority 2019, dated 2025).

What was measured:
FLT3 kinase = molecular target: T1, FLT3 kinase (Homo sapiens, UniProt P36888); test: FLT3 kinase assay (AlphaScreen); assay type: biochemical; conditions: read-out: Ranking of IC50 values, FLT3
T1 construct: purchased SignalChem
T1 sequence (P36888 27-993): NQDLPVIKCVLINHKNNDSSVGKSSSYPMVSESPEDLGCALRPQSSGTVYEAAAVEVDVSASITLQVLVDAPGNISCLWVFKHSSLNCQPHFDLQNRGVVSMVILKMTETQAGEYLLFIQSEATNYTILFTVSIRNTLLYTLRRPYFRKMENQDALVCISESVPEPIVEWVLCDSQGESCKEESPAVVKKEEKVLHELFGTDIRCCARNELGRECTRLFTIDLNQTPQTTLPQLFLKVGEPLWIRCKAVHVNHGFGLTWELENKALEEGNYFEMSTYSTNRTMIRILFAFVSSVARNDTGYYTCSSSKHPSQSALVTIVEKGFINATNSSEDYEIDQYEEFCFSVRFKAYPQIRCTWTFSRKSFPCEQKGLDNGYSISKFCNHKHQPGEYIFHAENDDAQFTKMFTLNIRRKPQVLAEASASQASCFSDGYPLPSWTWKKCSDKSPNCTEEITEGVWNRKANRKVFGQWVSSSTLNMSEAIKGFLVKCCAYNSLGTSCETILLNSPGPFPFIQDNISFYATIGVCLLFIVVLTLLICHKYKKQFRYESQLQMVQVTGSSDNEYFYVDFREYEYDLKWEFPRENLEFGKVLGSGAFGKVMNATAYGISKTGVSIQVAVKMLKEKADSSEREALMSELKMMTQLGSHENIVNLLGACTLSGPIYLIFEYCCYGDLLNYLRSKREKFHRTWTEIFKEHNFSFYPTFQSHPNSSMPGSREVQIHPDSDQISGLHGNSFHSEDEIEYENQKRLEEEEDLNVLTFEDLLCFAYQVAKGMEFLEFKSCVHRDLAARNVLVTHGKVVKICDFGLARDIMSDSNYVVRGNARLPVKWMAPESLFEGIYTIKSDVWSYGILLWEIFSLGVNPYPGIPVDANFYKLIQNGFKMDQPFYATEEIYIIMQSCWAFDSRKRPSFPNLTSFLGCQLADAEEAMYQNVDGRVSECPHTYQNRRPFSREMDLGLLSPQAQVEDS
Method in brief: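 AlphaScreen detection of biotin-poly(Glu4:Tyr1) phosphorylation by 1.5 ng recombinant FLT3 (10 μM ATP, pH 7.0 MOPS, 10 mM MgCl2; 30 °C, 30 min, EDTA quench). IC50 values derived from serially diluted compound tested in duplicate.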

PDGFRα kinase = molecular target: T2, PDGFRα kinase (Homo sapiens, UniProt P16234); test: PDGFRα kinase assay (AlphaScreen); assay type: biochemical; conditions: read-out: Ranking of IC50 values, PDGFRα
T2 construct: purchased SignalChem
T2 sequence (P16234 24-1089): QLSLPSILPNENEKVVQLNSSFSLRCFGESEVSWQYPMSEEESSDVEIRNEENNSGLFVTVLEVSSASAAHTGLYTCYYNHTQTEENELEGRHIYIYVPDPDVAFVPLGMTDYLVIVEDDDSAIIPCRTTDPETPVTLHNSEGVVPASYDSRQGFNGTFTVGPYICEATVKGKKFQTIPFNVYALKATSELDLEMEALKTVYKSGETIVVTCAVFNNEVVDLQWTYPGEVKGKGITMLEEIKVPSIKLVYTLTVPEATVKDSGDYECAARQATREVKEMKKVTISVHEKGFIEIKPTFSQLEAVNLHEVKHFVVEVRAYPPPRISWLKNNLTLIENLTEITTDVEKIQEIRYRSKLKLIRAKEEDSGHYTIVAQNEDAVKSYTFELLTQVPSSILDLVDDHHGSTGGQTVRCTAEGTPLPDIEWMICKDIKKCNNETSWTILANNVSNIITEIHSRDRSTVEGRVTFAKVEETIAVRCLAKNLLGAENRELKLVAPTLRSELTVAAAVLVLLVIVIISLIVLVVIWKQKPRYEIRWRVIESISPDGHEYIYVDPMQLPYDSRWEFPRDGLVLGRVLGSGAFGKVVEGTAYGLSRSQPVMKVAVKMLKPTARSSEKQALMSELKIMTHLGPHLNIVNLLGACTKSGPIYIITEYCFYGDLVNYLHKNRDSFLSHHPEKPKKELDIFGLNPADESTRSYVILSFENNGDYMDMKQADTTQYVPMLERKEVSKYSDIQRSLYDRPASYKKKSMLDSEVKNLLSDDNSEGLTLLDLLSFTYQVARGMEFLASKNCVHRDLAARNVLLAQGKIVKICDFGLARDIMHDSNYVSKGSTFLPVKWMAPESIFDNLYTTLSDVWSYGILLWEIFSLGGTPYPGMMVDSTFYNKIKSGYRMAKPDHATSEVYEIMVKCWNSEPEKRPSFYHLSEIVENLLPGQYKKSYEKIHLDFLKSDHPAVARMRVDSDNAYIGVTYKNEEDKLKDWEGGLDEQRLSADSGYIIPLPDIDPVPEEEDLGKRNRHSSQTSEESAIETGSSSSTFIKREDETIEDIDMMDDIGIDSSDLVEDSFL
Method in brief: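 IC50 values came from duplicate serial dilutions, with product read by AlphaScreen. The reaction ran 30 min at 30 °C, then EDTA stop: 1.5 ng recombinant enzyme, biotin-poly(Glu4:Tyr1) substrate, 10 μM ATP, 10 mM MOPS pH 7.0, 10 mM MgCl2.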

[1] = system: phosphorylation of FLT3 and its down-stream effector STAT5; test: Western blotting of p-FLT3 and p-STAT5 in MV4-11 cells; assay type: cell-based; conditions: Homo sapiens; at 30 nM treatment, 3 hours, FLT3-ITD positive MV4-11 leukemia cells; read-out: inhibition activity against phosphorylation of FLT3 and its down-stream effector STAT5
Method in brief: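 MV4-11 cells held overnight in IMDM with 0.1% FBS, then 3 million cells treated with compound for 3 h. Whole lysates immunoblotted for p-FLT3 (Tyr-591), p-STAT5 (Tyr-694) and actin. Band intensities at 30 nM compared to DMSO control; % inhibition = (1 − relative intensity) × 100.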

Compound | IC50 (FLT3 kinase) [nM] | IC50 (PDGFRα kinase) [nM] | inhibition at 0.03 µM [1] [%]
Cn1cc(-c2cc3c(s2)Cc2c(-c4ccc5cnn(C)c5c4)n[nH]c2-3)cc1C(=O)N1CCOCC1 [Compound 46, (1-methyl-4-(3-(1-methyl-1H-indazol-6-yl)-1,4-dihydrothieno[2′,3′:4,5]cyclopenta[1,2-c]pyrazol-6-yl)-1H-pyrrol-2-yl) (morpholino)methanone] | < 1 | 1 to 10 | > 50
Cn1ncc2ccc(-c3n[nH]c4c3Cc3sc(-c5ccc(S(=O)(=O)N6CCOCC6)cc5)cc3-4)cc21 [Compound 47, 4-((4-(3-(1-methyl-1H-indazol-6-yl)-1,4-dihydro-thieno[2′,3′:4,5]cyclopenta [1,2-c]pyrazol-6-yl)phenyl)sulfonyl) morpholine] | < 1 | 1 to 10 | > 50
Cn1ncc2ccc(-c3n[nH]c4c3Cc3sc(-c5csc(C(=O)N6CCOCC6)c5)cc3-4)cc21 [Compound 48, (4-(3-(1-methyl-1H-indazol-6-yl)-1,4-dihydro-thieno[2′,3′:4,5]cyclopenta [1,2-c]pyrazol-6-yl)thiophen-2-yl) (morpholino)methanone] | < 1 | 1 to 10 | > 50
CN(C)C(=O)c1ccc(-c2cc3c(s2)Cc2c(-c4ccc5cnn(C)c5c4)n[nH]c2-3)cc1 [Compound 49, N,N-dimethyl-4-(3-(1-methyl-1H-indazol-6-yl)-1,4-dihydrothieno [2′,3′:4,5]cyclopenta [1,2-c]pyrazol-6-yl) benzamide] | < 1 | 1 to 10 | > 50
CN(C)S(=O)(=O)c1ccc(-c2cc3c(s2)Cc2c(-c4ccc5cnn(C)c5c4)n[nH]c2-3)cc1 [Compound 50, N,N-dimethyl-4-(3-(1-methyl-1H-indazol-6-yl)-1,4-dihydrothieno [2′,3′:4,5]cyclopenta [1,2-c]pyrazol-6-yl) benzenesulfonamide] | < 1 | 10 to 30 | > 50
Cn1ncc2ccc(-c3n[nH]c4c3Cc3sc(-c5ccc(CN6CCOCC6)s5)cc3-4)cc21 [Compound 51, 4-((5-(3-(1-methyl-1H-indazol-6-yl)-1,4-dihydro-thieno[2′,3′:4,5]cyclopenta [1,2-c]pyrazol-6-yl)thiophen-2-yl)methyl) morpholine] | < 1 | 10 to 30 | > 50
Cn1ncc2ccc(-c3n[nH]c4c3Cc3sc(-c5csc(CN6CCOCC6)c5)cc3-4)cc21 [Compound 52, 4-((4-(3-(1-methyl-1H-indazol-6-yl)-1,4-dihydro-thieno[2′,3′:4,5]cyclopenta [1,2-c]pyrazol-6-yl)thiophen-2-yl)methyl) morpholine] | < 1 | 10 to 30 | > 50
Cn1ncc2ccc(-c3n[nH]c4c3Cc3sc(-c5cc(F)c(CN6CCOCC6)c(F)c5)cc3-4)cc21 [Compound 53, 4-(2,6-difluoro-4-(3-(1-methyl-1H-indazol-6-yl)-1,4-dihydrothieno [2′,3′:4,5]cyclopenta [1,2-c]pyrazol-6-yl)benzyl)morpholine] | < 1 | 30 to 100 | > 50
C[C@@H]1CN(Cc2ccc(-c3cc4c(s3)Cc3c(-c5ccc6cnn(C)c6c5)n[nH]c3-4)cc2)C[C@H](C)O1 [Compound 54, (2S,6R)-2,6-dimethyl-4-(4-(3-(1-methyl-1H-indazol-6-yl)-1,4-dihydro-thieno[2′,3′:4,5]cyclopenta [1,2-c]pyrazol-6-yl)benzyl)morpholine] | < 1 | 1 to 10 | > 50
Cn1ncc2ccc(-c3n[nH]c4c3Cc3sc(-c5cc(C(=O)N6CCOCC6)ccn5)cc3-4)cc21 [Compound 56, (2-(3-(1-methyl-1H-indazol-6-yl)-1,4-dihydro-thieno[2′,3′:4,5]cyclopenta [1,2-c]pyrazol-6-yl)pyridin-4-yl)(morpholino) methanone] | 1 to 10 | 1 to 10 | > 50
Cn1ncc2ccc(-c3n[nH]c4c3Cc3sc(C5=CCN(C(=O)N6CCOCC6)CC5)cc3-4)cc21 [Compound 57, (4-(3-(1-methyl-1H-indazol-6-yl)-1,4-dihydro-thieno[2′,3′:4,5]cyclopenta [1,2-c]pyrazol-6-yl)-3,6-dihydropyridin-1(2H)-yl) (morpholino)methanone] | < 1 | 10 to 30 | > 50
Cn1ncc2ccc(-c3n[nH]c4c3Cc3sc(C5CCN(C(=O)OC(C)(C)C)CC5)cc3-4)cc21 [Compound 58, tert-butyl-4-(3-(1-methyl-1H-indazol-6-yl)-1,4-dihydrothieno[2′,3′:4,5]cyclopenta[1,2-c]pyrazol-6-yl)piperidine-1-carboxylate] | 1 to 10 | 30 to 100 | > 50
Cn1ncc2ccc(-c3n[nH]c4c3Cc3sc(-c5ccc(CN6CCOCC6=O)cc5)cc3-4)cc21 [Compound 59, 4-(4-(3-(1-methyl-1H-indazol-6-yl)-1,4-dihydro-thieno[2′,3′:4,5]cyclopenta [1,2-c]pyrazol-6-yl)benzyl)morpholin-3-one] | < 1 | 1 to 10 | > 50
Cn1ncc2ccc(-c3n[nH]c4c3Cc3sc(-c5csc(C(=O)N6CCOCC6)n5)cc3-4)cc21 [Compound 60, (4-(3-(1-methyl-1H-indazol-6-yl)-1,4-dihydro-thieno[2′,3′:4,5]cyclopenta [1,2-c]pyrazol-6-yl)thiazol-2-yl)(morpholino) methanone] | < 1 | 1 to 10 | > 50
Cn1ncc2ccc(-c3n[nH]c4c3Cc3sc(-c5ccc(CN6CCCCC6=O)cc5)cc3-4)cc21 [Compound 61, 1-(4-(3-(l-methyl-1H-indazol-6-yl)-1,4-dihydro-thieno[2′,3′:4,5]cyclopenta [1,2-c]pyrazol-6-yl)benzyl)piperidin-2-one] | 1 to 10 | 1 to 10 | > 50
Cn1ncc2ccc(-c3n[nH]c4c3Cc3sc(-c5ccc(CN6CCNC(=O)C6)cc5)cc3-4)cc21 [Compound 63, 4-(4-(3-(1-methyl-1H-indazol-6-yl)-1,4-dihydro-thieno[2′,3′:4,5]cyclopenta [1,2-c]pyrazol-6-yl)benzyl)piperazin-2-one] | 1 to 10 | 1 to 10 | > 50
Cn1ncc2ccc(-c3n[nH]c4c3Cc3sc(-c5ccc(CN6CCCC6=O)cc5)cc3-4)cc21 [Compound 64, 1-(4-(3-(1-methyl-1H-indazol-6-yl)-1,4-dihydro-thieno[2′,3′:4,5]cyclopenta [1,2-c]pyrazol-6-yl)benzyl)pyrrolidin-2-one] | 1 to 10 | 10 to 30 | > 50
CC1C(=O)N(C)CCN1Cc1ccc(-c2cc3c(s2)Cc2c(-c4ccc5cnn(C)c5c4)n[nH]c2-3)cc1 (stereo not drawn) [Compound 65, 1,3-dimethyl-4-(4-(3-(1-methyl-1H-indazol-6-yl)-1,4-dihydrothieno [2′,3′:4,5]cyclopenta [1,2-c]pyrazol-6-yl)benzyl)piperazin-2-one] | 1 to 10 | 1 to 10 | > 50
Cn1ncc2ccc(-c3n[nH]c4c3Cc3sc(-c5ccc(CCN6CCOCC6=O)cc5)cc3-4)cc21 [Compound 66, 4-(4-(3-(1-methyl-1H-indazol-6-yl)-1,4-dihydro-thieno[2′,3′:4,5]cyclopenta [1,2-c]pyrazol-6-yl)phenethyl)morpholin-3-one] | < 1 | > 1000 | > 50
Cn1ncc2ccc(-c3n[nH]c4c3Cc3sc(-c5ccc(OCCN6CCOCC6)cc5)cc3-4)cc21 [Compound 69, 4-(2-(4-(3-(1-methyl-1H-indazol-6-yl)-1,4-dihydro-thieno[2′,3′:4,5]cyclopenta [1,2-c]pyrazol-6-yl)phenoxy)ethyl)morpholine] | < 1 | 10 to 30 | > 50
